{"source": "paper PMC6286348", "about": "“Inhibitor binding mode and allosteric regulation of Na^+-glucose symporters” (Nature Communications, 2018)", "key": {"hSGLT1 D268H": {"target": "T1, hSGLT1 D268H (Homo sapiens, UniProt P13866, D268H)", "T1 construct": "expressed in transfected cells; host or cells: Xenopus laevis oocytes injected with cRNA", "T1 sequence (P13866 1-664 D268H)": "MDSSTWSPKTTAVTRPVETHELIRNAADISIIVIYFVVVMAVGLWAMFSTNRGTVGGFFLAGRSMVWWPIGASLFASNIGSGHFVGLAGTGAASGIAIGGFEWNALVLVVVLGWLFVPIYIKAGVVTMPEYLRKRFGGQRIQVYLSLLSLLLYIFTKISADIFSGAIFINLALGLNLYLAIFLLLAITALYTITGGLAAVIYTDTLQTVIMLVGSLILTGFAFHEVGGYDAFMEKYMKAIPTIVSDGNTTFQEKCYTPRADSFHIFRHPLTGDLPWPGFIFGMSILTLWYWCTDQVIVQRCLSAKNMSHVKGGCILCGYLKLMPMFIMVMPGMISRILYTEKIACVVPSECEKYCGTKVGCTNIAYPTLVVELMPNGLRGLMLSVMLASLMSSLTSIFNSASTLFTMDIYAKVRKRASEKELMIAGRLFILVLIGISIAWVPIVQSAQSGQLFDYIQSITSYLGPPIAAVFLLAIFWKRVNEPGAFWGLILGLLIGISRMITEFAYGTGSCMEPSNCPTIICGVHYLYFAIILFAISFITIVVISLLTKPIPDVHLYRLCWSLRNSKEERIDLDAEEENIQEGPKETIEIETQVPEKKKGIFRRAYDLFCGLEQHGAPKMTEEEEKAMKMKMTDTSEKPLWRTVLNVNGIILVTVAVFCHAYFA", "assay": "SGLT current measurement in oocytes, hSGLT1 D268H", "format": "cell-based", "details": "10 mM αMDG, Vm = −50 mV; oocytes, 22 °C", "description": "Xenopus laevis (Nasco) oocytes (V–VI) were prepared as previously described[20] and injected with 50 nl of cRNA (1 μg/μl). […] Briefly, oocytes were incubated for 30 min in the presence of 50 μM αMDG (5 μM [^14C]αMDG) in a buffer containing (in mM) 100 NaCl, 2 KCl, 1 MgCl2, 1 CaCl2, and 10 N-(2-hydroxyethyl)piperazine-N′-(2-ethanesulfonic acid) (HEPES)/Tris (pH 7.5). After incubation, oocytes were rinsed thoroughly with ice-cold buffer containing (mM) 100 choline Cl^–, 2 KCl, 1 MgCl2, 1 CaCl2, and 10 HEPES/Tris (pH 7.5), individually lysed with 5% sodium dodecyl sulfate, and assayed for radioactivity.\nInjected oocytes were incubated at 18 °C, and after 3–4 days, two electrode voltage clamp experiments were performed as previously described. Briefly, SGLT inward glucose currents were measured as a function of the external Na^+ (0–100 mM NaCl), sugar (0–100 mM αMDG), and inhibitors (0.001–100 μM). Steady-state and hSGLT1 capacitive currents were recorded using voltage steps from a holding voltage, Vh of −60 mV, to voltages in the range of −180 to +50 mV in 20 mV increments. The apparent affinity of αMDG, K0.5, was estimated from plots of the inward current as a function of the external αMDG concentration. […] The Na^+-to-αMDG stoichiometry was determined from the reversal potential measurements using the Gibbs free energy as previously described. […]"}, "hSGLT1 F453C": {"tested_on": "hSGLT1 F453C", "set-up": "method as in PMID 22159082", "details": "oocytes, 22 °C; cited from earlier work"}, "hSGLT1 S392A/C": {"tested_on": "hSGLT1 S392A/C", "set-up": "method as in PMID 22159082", "details": "oocytes, 22 °C; cited from earlier work"}, "hSGLT1 Y290F": {"target": "T2, hSGLT1 Y290F (Homo sapiens, UniProt P13866, Y290F)", "T2 construct": "expressed in transfected cells; host or cells: Xenopus laevis oocytes injected with cRNA", "T2 sequence (P13866 1-664 Y290F)": "T1 sequence (P13866 1-664 D268H) with H268D, Y290F", "set-up": "method as in PMID 23116249", "details": "oocytes, 22 °C; cited from earlier work"}, "hSGLT1 Y290C": {"tested_on": "hSGLT1 Y290C", "set-up": "method as in PMID 22159082", "details": "oocytes, 22 °C; cited from earlier work"}}, "note": "Substitutions are numbered along the chain they refer to.", "data": [{"smiles": "[Na+]", "note": "[Na^+]", "values": [{"measurement": "K0.5 Na^+", "setting": "hSGLT1 D268H", "result": "17 ± 1.2", "unit": "mM"}, {"measurement": "K0.5 Na^+", "setting": "hSGLT1 F453C", "result": "21 ± 1[20] mM"}, {"measurement": "K0.5 Na^+", "setting": "hSGLT1 S392A/C", "result": "122 ± 12[20] mM"}, {"measurement": "K0.5 Na^+", "setting": "hSGLT1 Y290F", "result": "20 ± 1[21] mM"}, {"measurement": "K0.5 Na^+", "setting": "hSGLT1 Y290C", "result": "46 ± 5[20] mM"}]}]}
